The target of experiment [1] is T1, S100B (Homo sapiens, UniProt P04271).
T1 construct: made in house; host or cells: Escherichia coli BL21(DE3)
T1 sequence (P04271 1-92): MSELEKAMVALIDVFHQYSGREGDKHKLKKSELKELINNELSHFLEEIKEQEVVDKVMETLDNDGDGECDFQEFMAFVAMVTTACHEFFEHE
Briefly: Competition pull-down with native ligand RSK1 (689–735). The format is binding. Conditions: H14 library; competitor peptide 200 µM; read-out: Surface mapping KD (apparent), competition.

In experiment [2] the target is T2, CaM (Bos taurus, UniProt P62157).
T2 construct: made in house; host or cells: E. coli BL21 (DE3)
Briefly: Pull-down assay with immobilized protein and LSM libraries. The format is binding, bovine. Conditions: H14 library; 1:2 stoichiometry assumed; read-out: Surface mapping KD (apparent). In a few lines: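 His-tagged protein immobilized on Co-NTA resin, equilibrated 30 min at room temperature with LSM sublibraries (64 members, […]), equimolar protein to total probe. CaM buffer: 20 mM HEPES pH 7.4, 150 mM NaCl, 5 mM CaCl2. Bound fractions from HPLC-MS loss of unbound probe versus protein-free resin control; Kd derived.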

The target of experiment [3] is T3, Gal-1 (Homo sapiens, UniProt P09382).
T3 construct: made in house; host or cells: E. coli BL21(DE3)
T3 sequence (P09382 whole entry): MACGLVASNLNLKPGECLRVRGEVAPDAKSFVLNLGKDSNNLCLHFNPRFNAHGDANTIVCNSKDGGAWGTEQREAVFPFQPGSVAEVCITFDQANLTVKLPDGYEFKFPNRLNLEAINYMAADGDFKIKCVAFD
Briefly: Competition pull-down with lactose. Conditions: H14 library; lactose 10 mM; read-out: Surface mapping KD (apparent), competition. Type of experiment: binding. In a few lines:
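His6-tagged proteins immobilized on Co-NTA resin at 64 µM final with 64-member LSM foldamer sublibraries (1 M each, as printed) in pH 7.4 HEPES/NaCl buffers (Ca2+/TCEP per target), 30 min RT; competitor peptides 200 µM final, lactose 10 mM for Gal-1. Bound fractions from LC-MS loss vs protein-free resin; KD assuming 1:1 binding.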

The target of experiment [4] is T2, CaM. Briefly: Competition pull-down with native ligand TRPV1-Ct15. Type of experiment: binding, bovine. Conditions: H14 library; competitor peptide 200 µM; read-out: Surface mapping KD (apparent), competition.
For another experiment, the target named is T4, S100A4 (Homo sapiens, UniProt P26447).
T4 construct: made in house; host or cells: Escherichia coli BL21(DE3)
T4 sequence (P26447 whole entry): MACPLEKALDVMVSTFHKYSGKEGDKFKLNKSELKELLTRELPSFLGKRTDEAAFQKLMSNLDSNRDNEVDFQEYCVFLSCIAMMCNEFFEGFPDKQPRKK
Briefly: Pull-down assay with immobilized protein and LSM libraries. The format is binding. Conditions: H14 library; 1:1 binding assumed; read-out: Surface mapping KD (apparent). In short, it runs like this: (§1)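 Buffers were HEPES pH 7.4 with 150 mM NaCl, plus 1 mM TCEP and 1 mM CaCl2 (50 mM HEPES) for S100A4 and S100B, 1 mM TCEP for Gal-1, and no additive for RecQ-WH. Immobilized protein at 64 µM was equilibrated 30 min with the LSM sublibrary, and unbound probes were measured by LC-MS.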

Experiment [5] deals with T3, Gal-1. The description is as above. Type of experiment: binding. Conditions: H14 library; 1:1 binding assumed; read-out: Surface mapping KD (apparent). In short, it runs like this:
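His-tagged protein immobilized on Co-NTA resin (64 µM) in 20 mM HEPES pH 7.4, 150 mM NaCl, equilibrated 30 min at room temperature with foldamer LSM sublibraries at equimolar total concentration. Unbound fractions quantified by HPLC-MS versus protein-free resin control; apparent KD assumes 1:1 binding.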

The target in experiment [6] is T1, S100B. The description is as above. The format is binding. Conditions: H14 library; 1:1 binding assumed; read-out: Surface mapping KD (apparent). In a few lines:
as §1

Each structure is given as a SMILES string.

Regarding `CSCC[C@@H](CC(=O)N[C@H]1CCCC[C@@H]1C(N)=O)NC(=O)[C@H]1CCCC[C@@H]1NC(=O)[C@H]1CCCC[C@@H]1NC(=O)C[C@H](CCC(=O)O)NC(=O)[C@H]1CCCC[C@@H]1N` [H14 EM], the Kd at S100B [1] came out at 141 µM.

In the case of `C[C@@H](O)[C@@H](CC(=O)N[C@H]1CCCC[C@@H]1C(N)=O)NC(=O)[C@H]1CCCC[C@@H]1NC(=O)[C@H]1CCCC[C@@H]1NC(=O)C[C@H](CO)NC(=O)[C@H]1CCCC[C@@H]1N` [H14 ST], the Kd at CaM [2] was 215 µM; at Gal-1 [3] it was 413 µM; on CaM [4], 307 µM; on S100A4, 323 µM.

Regarding `CC[C@H](C)[C@@H](CC(=O)N[C@H]1CCCC[C@@H]1C(N)=O)NC(=O)[C@H]1CCCC[C@@H]1NC(=O)[C@H]1CCCC[C@@H]1NC(=O)C[C@H](CC(N)=O)NC(=O)[C@H]1CCCC[C@@H]1N` [H14 NI], the Kd on CaM [2] amounted to 80 µM; on Gal-1 [3] it was 323 µM; on CaM [4] it was 283 µM; at Gal-1 [5], 258 µM; at S100A4 it was 472 µM.

Regarding `CC[C@H](C)[C@@H](CC(=O)N[C@H]1CCCC[C@@H]1C(N)=O)NC(=O)[C@H]1CCCC[C@@H]1NC(=O)[C@H]1CCCC[C@@H]1NC(=O)C[C@H](CO)NC(=O)[C@H]1CCCC[C@@H]1N` [H14 SI], the Kd at CaM [2] is 75 µM; at Gal-1 [3], 478 µM; at CaM [4], 471 µM; at S100B [6], 380 µM; on Gal-1 [5] it was 336 µM; on S100A4, 19 µM.

`N=C(N)NCCC[C@@H](CC(=O)N[C@H]1CCCC[C@@H]1C(N)=O)NC(=O)[C@H]1CCCC[C@@H]1NC(=O)[C@H]1CCCC[C@@H]1NC(=O)C[C@H](CO)NC(=O)[C@H]1CCCC[C@@H]1N` [H14 SR]: the Kd at CaM [2] came to 75 µM; on Gal-1 [3], 349 µM; on CaM [4], 174 µM; on S100B [6], 76 µM; at Gal-1 [5], 156 µM; at S100A4, 188 µM.

On to `CC(C)C[C@@H](CC(=O)N[C@H]1CCCC[C@@H]1C(N)=O)NC(=O)[C@H]1CCCC[C@@H]1NC(=O)[C@H]1CCCC[C@@H]1NC(=O)C[C@H](CC(N)=O)NC(=O)[C@H]1CCCC[C@@H]1N` [H14 NL], for which the Kd on CaM [2] is 76 µM; on Gal-1 [3], 338 µM; on CaM [4], 345 µM; at Gal-1 [5], 259 µM; at S100A4, 472 µM.

Regarding `CSCC[C@@H](CC(=O)N[C@H]1CCCC[C@@H]1C(N)=O)NC(=O)[C@H]1CCCC[C@@H]1NC(=O)[C@H]1CCCC[C@@H]1NC(=O)C[C@H](CCC(N)=O)NC(=O)[C@H]1CCCC[C@@H]1N` [H14 QM], the Kd at CaM [2] is 51 µM; at Gal-1 [3], 406 µM; on CaM [4] it was 317 µM; at Gal-1 [5], 364 µM; at S100A4 it was 448 µM.

`CC(C)C[C@@H](CC(=O)N[C@H]1CCCC[C@@H]1C(N)=O)NC(=O)[C@H]1CCCC[C@@H]1NC(=O)[C@H]1CCCC[C@@H]1NC(=O)C[C@H](CO)NC(=O)[C@H]1CCCC[C@@H]1N` [H14 SL]: the Kd at CaM [2] stood at 64 µM; at Gal-1 [3], 325 µM; on CaM [4], 436 µM; on S100B [6], 380 µM; on Gal-1 [5], 251 µM; at S100A4 it was 19 µM.

In the case of `CC[C@H](C)[C@@H](CC(=O)N[C@H]1CCCC[C@@H]1C(N)=O)NC(=O)[C@H]1CCCC[C@@H]1NC(=O)[C@H]1CCCC[C@@H]1NC(=O)C[C@H](CCC(N)=O)NC(=O)[C@H]1CCCC[C@@H]1N` [H14 QI], the Kd on CaM [2] amounted to 82 µM; at Gal-1 [3], 486 µM; at CaM [4], 241 µM; at Gal-1 [5] it was 456 µM; on S100A4, 256 µM.

Turning to `N=C(N)NCCC[C@@H](CC(=O)N[C@H]1CCCC[C@@H]1C(N)=O)NC(=O)[C@H]1CCCC[C@@H]1NC(=O)[C@H]1CCCC[C@@H]1NC(=O)C[C@H](CCC(N)=O)NC(=O)[C@H]1CCCC[C@@H]1N` [H14 QR], the Kd on CaM [2] is 43 µM; on Gal-1 [3], 272 µM; on CaM [4], 291 µM; at S100B [6], 107 µM; on Gal-1 [5], 71 µM; at S100A4, 344 µM.

Consider `NC(=O)C[C@@H](CC(=O)N[C@H]1CCCC[C@@H]1C(=O)N[C@H]1CCCC[C@@H]1C(=O)N[C@H](CC(=O)N[C@H]1CCCC[C@@H]1C(N)=O)Cc1ccccc1)NC(=O)[C@H]1CCCC[C@@H]1N` [H14 NF], for which the Kd came out at 45 µM on CaM [2]; 250 µM at Gal-1 [3]; 339 µM on CaM [4]; 123 µM on S100B [6]; 264 µM on Gal-1 [5].

Take `CC(C)[C@@H](CC(=O)N[C@H]1CCCC[C@@H]1C(N)=O)NC(=O)[C@H]1CCCC[C@@H]1NC(=O)[C@H]1CCCC[C@@H]1NC(=O)C[C@H](CCCNC(=N)N)NC(=O)[C@H]1CCCC[C@@H]1N` [H14 RV]: the Kd came to 26 µM at CaM [2]; 418 µM at Gal-1 [3]; 219 µM on CaM [4]; 63 µM at S100B [6]; 72 µM on S100A4.

For the compound `CSCC[C@@H](CC(=O)N[C@H]1CCCC[C@@H]1C(N)=O)NC(=O)[C@H]1CCCC[C@@H]1NC(=O)[C@H]1CCCC[C@@H]1NC(=O)C[C@H](CO)NC(=O)[C@H]1CCCC[C@@H]1N` [H14 SM], the Kd at CaM [2] was determined as 43 µM; at Gal-1 [3], 352 µM; on CaM [4] it was 210 µM; at Gal-1 [5], 356 µM; on S100A4 it was 26 µM.

Regarding `CC(C)[C@@H](CC(=O)N[C@H]1CCCC[C@@H]1C(N)=O)NC(=O)[C@H]1CCCC[C@@H]1NC(=O)[C@H]1CCCC[C@@H]1NC(=O)C[C@H](CO)NC(=O)[C@H]1CCCC[C@@H]1N` [H14 SV], the Kd on CaM [2] came out at 101 µM; on Gal-1 [3] it was 476 µM; on CaM [4] it was 398 µM; at Gal-1 [5] it was 221 µM; on S100A4, 34 µM.

Turning to `CC(C)[C@@H](CC(=O)N[C@H]1CCCC[C@@H]1C(N)=O)NC(=O)[C@H]1CCCC[C@@H]1NC(=O)[C@H]1CCCC[C@@H]1NC(=O)C[C@H](CC(N)=O)NC(=O)[C@H]1CCCC[C@@H]1N` [H14 NV], the Kd at CaM [2] was found to be 115 µM; on Gal-1 [3], 378 µM; at CaM [4] it was 261 µM; at Gal-1 [5], 349 µM; at S100A4, 395 µM.

Take `NCCCC[C@@H](CC(=O)N[C@H]1CCCC[C@@H]1C(N)=O)NC(=O)[C@H]1CCCC[C@@H]1NC(=O)[C@H]1CCCC[C@@H]1NC(=O)C[C@H](CCC(N)=O)NC(=O)[C@H]1CCCC[C@@H]1N` [H14 QK]: the Kd worked out at 96 µM on CaM [2]; 146 µM at Gal-1 [3]; 208 µM on CaM [4]; 81 µM at S100B [6]; 158 µM at Gal-1 [5]; 382 µM on S100A4.

As to `N=C(N)NCCC[C@@H](CC(=O)N[C@H]1CCCC[C@@H]1C(N)=O)NC(=O)[C@H]1CCCC[C@@H]1NC(=O)[C@H]1CCCC[C@@H]1NC(=O)C[C@H](CC(N)=O)NC(=O)[C@H]1CCCC[C@@H]1N` [H14 NR], the Kd worked out at 58 µM at CaM [2]; 247 µM on Gal-1 [3]; 434 µM on CaM [4]; 128 µM at S100B [6]; 114 µM at Gal-1 [5].

With `C[C@@H](O)[C@@H](CC(=O)N[C@H]1CCCC[C@@H]1C(=O)N[C@H]1CCCC[C@@H]1C(=O)N[C@@H](CCCNC(=N)N)CC(=O)N[C@H]1CCCC[C@@H]1C(N)=O)NC(=O)[C@H]1CCCC[C@@H]1N` [H14 TR], the Kd is 75 µM on CaM [2]; 432 µM at Gal-1 [3]; 338 µM at CaM [4]; 94 µM on S100B [6]; 372 µM on Gal-1 [5]; 407 µM on S100A4.

`C[C@@H](CC(=O)N[C@H]1CCCC[C@@H]1C(N)=O)NC(=O)[C@H]1CCCC[C@@H]1NC(=O)[C@H]1CCCC[C@@H]1NC(=O)C[C@@H](NC(=O)[C@H]1CCCC[C@@H]1N)[C@@H](C)O` [H14 TA]: the Kd on CaM [2] came to 244 µM; on Gal-1 [3], 426 µM; on CaM [4], 398 µM; at Gal-1 [5] it was 425 µM; at S100A4 it was 338 µM.

For `CC(C)C[C@@H](CC(=O)N[C@H]1CCCC[C@@H]1C(N)=O)NC(=O)[C@H]1CCCC[C@@H]1NC(=O)[C@H]1CCCC[C@@H]1NC(=O)C[C@H](CCC(N)=O)NC(=O)[C@H]1CCCC[C@@H]1N` [H14 QL], the Kd was determined as 87 µM at CaM [2]; 458 µM on Gal-1 [3]; 241 µM at CaM [4]; 457 µM on Gal-1 [5]; 256 µM on S100A4.

The values are drawn from publication PMC8162404, “Proteomimetic surface fragments distinguish targets by function” (Chemical Science, 2020).
